Tested on: IGROV1 complex spheroids (HUVEC, MSC), viability % test/control
Assay: Anticancer human tumor IGROV1 cell line growth inhibition [GQUAD];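 further: spheroids exposed to compounds for 7 days before readout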;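 on viability, T/C: 100% = DMSO vehicle control viability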
Conditions: for IC50: curve of first compound; for viability, T/C: stronger effect = lower value; active means viability on the fitted dose curve at most 10% of control; inactive means the rest
Summary of the method: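 Viability of tumor cells grown as complex spheroids with endothelial and stromal cells, exposed to drug combinations. Top concentration at or near clinical Cmax (else 10 microM), diluted in half-log increments.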

[1] = second compound 0.0316 µM, first compound 0.0316 µM
[2] = second compound 0.0316 µM, first compound 0.1 µM
[3] = second compound 0.0316 µM, first compound 0.316 µM
[4] = second compound 0.0316 µM, first compound 1 µM
[5] = second compound 0.0316 µM, first compound 3.16 µM
[6] = second compound 0.0316 µM, first compound 10 µM
[7] = second compound 0.1 µM, first compound 0.0316 µM
[8] = second compound 0.1 µM, first compound 0.1 µM
[9] = second compound 0.1 µM, first compound 0.316 µM
[10] = second compound 0.1 µM, first compound 1 µM
[11] = second compound 0.1 µM, first compound 3.16 µM
[12] = second compound 0.1 µM, first compound 10 µM
[13] = second compound 0.316 µM, first compound 0.0316 µM
[14] = second compound 0.316 µM, first compound 0.1 µM
[15] = second compound 0.316 µM, first compound 0.316 µM
[16] = second compound 0.316 µM, first compound 1 µM
[17] = second compound 0.316 µM, first compound 3.16 µM
[18] = second compound 0.316 µM, first compound 10 µM
[19] = second compound 1 µM, first compound 0.0316 µM
[20] = second compound 1 µM, first compound 0.1 µM
[21] = second compound 1 µM, first compound 0.316 µM
[22] = second compound 1 µM, first compound 1 µM
[23] = second compound 1 µM, first compound 3.16 µM
[24] = second compound 1 µM, first compound 10 µM
[25] = second compound 3.16 µM, first compound 0.0316 µM
[26] = second compound 3.16 µM, first compound 0.1 µM
[27] = second compound 3.16 µM, first compound 0.316 µM
[28] = second compound 3.16 µM, first compound 1 µM
[29] = second compound 3.16 µM, first compound 3.16 µM
[30] = second compound 3.16 µM, first compound 10 µM
[31] = second compound 10 µM, first compound 0.0316 µM
[32] = second compound 10 µM, first compound 0.1 µM
[33] = second compound 10 µM, first compound 0.316 µM
[34] = second compound 10 µM, first compound 1 µM
[35] = second compound 10 µM, first compound 3.16 µM
[36] = second compound 10 µM, first compound 10 µM

CC(=O)O[C@H]1C(=O)[C@@]2(C)[C@H]([C@H](OC(=O)c3ccccc3)[C@]3(O)C[C@H](OC(=O)[C@H](O)[C@@H](NC(=O)c4ccccc4)c4ccccc4)C(C)=C1C3(C)C)[C@]1(OC(C)=O)CO[C@@H]1C[C@@H]2O + Cc1[nH]c2ccc(F)cc2c1-c1nc2c3cccnc3c3ncccc3c2[nH]1
active: viability, T/C [1] 8.39% | viability, T/C [2] 5.36% | viability, T/C [3] 5.66% | viability, T/C [4] 4.68% | viability, T/C [5] 4.86% | viability, T/C [6] 4.6% | viability, T/C [7] 7.76% | viability, T/C [8] 6.43% | viability, T/C [9] 6.02% | viability, T/C [10] 4.48% | viability, T/C [11] 4.3% | viability, T/C [12] 4.13% | viability, T/C [13] 4.55% | viability, T/C [14] 3.65% | viability, T/C [15] 3.47% | viability, T/C [16] 3.01% | viability, T/C [17] 2.72% | viability, T/C [18] 2.99% | viability, T/C [19] 2.66% | viability, T/C [20] 2.5% | viability, T/C [21] 2.5% | viability, T/C [22] 2.49% | viability, T/C [23] 2.3% | viability, T/C [24] 2.06% | viability, T/C [25] 2.72% | viability, T/C [26] 2.23% | viability, T/C [27] 2.86% | viability, T/C [28] 2.81% | viability, T/C [29] 2.28% | viability, T/C [30] 2.17% | viability, T/C [31] 1.84% | viability, T/C [32] 2.38% | viability, T/C [33] 2.16% | viability, T/C [34] 2.22% | viability, T/C [35] 2.3% | viability, T/C [36] 2.4%
< 31.6 nM: IC50 (second compound 0.0316 µM) | IC50 (second compound 0.1 µM) | IC50 (second compound 0.316 µM) | IC50 (second compound 1 µM) | IC50 (second compound 3.16 µM) | IC50 (second compound 10 µM)

CC[C@@]1(O)C(=O)OCc2c1cc1n(c2=O)Cc2cc3c(CN(C)C)c(O)ccc3nc2-1 + Cc1[nH]c2ccc(F)cc2c1-c1nc2c3cccnc3c3ncccc3c2[nH]1
23.1 nM: IC50 (second compound 0.1 µM)
< 0.999 nM: IC50 (second compound 1 µM) | IC50 (second compound 3.16 µM) | IC50 (second compound 10 µM)
9.14 nM: IC50 (second compound 0.316 µM)
active: viability, T/C [15] 10.2% | viability, T/C (second compound 1 µM, first compound 0.000999 µM) 4.53% | viability, T/C (second compound 1 µM, first compound 0.00316 µM) 5.2% | viability, T/C (second compound 1 µM, first compound 0.00999 µM) 3.92% | viability, T/C [19] 4.65% | viability, T/C (second compound 1 µM, first compound 0.0999 µM) 5.01% | viability, T/C [21] 4.15% | viability, T/C (second compound 3.16 µM, first compound 0.000999 µM) 4.32% | viability, T/C (second compound 3.16 µM, first compound 0.00316 µM) 4.59% | viability, T/C (second compound 3.16 µM, first compound 0.00999 µM) 4.67% | viability, T/C [25] 4.52% | viability, T/C (second compound 3.16 µM, first compound 0.0999 µM) 4.31% | viability, T/C [27] 2.77% | viability, T/C (second compound 10 µM, first compound 0.000999 µM) 4.73% | viability, T/C (second compound 10 µM, first compound 0.00316 µM) 3.46% | viability, T/C (second compound 10 µM, first compound 0.00999 µM) 4.25% | viability, T/C [31] 4.75% | viability, T/C (second compound 10 µM, first compound 0.0999 µM) 4.66% | viability, T/C [33] 3.29%
inactive: viability, T/C (second compound 0.0316 µM, first compound 0.000999 µM) 99.8% | viability, T/C (second compound 0.0316 µM, first compound 0.00316 µM) 73.2% | viability, T/C (second compound 0.0316 µM, first compound 0.00999 µM) 92.3% | viability, T/C [1] 42.7% | viability, T/C (second compound 0.0316 µM, first compound 0.0999 µM) 10.9% | viability, T/C [3] 10.8% | viability, T/C (second compound 0.1 µM, first compound 0.000999 µM) 96.9% | viability, T/C (second compound 0.1 µM, first compound 0.00316 µM) 77.7% | viability, T/C (second compound 0.1 µM, first compound 0.00999 µM) 94.9% | viability, T/C [7] 35% | viability, T/C (second compound 0.1 µM, first compound 0.0999 µM) 10.7% | viability, T/C [9] 11.1% | viability, T/C (second compound 0.316 µM, first compound 0.000999 µM) 93.1% | viability, T/C (second compound 0.316 µM, first compound 0.00316 µM) 58.5% | viability, T/C (second compound 0.316 µM, first compound 0.00999 µM) 56.9% | viability, T/C [13] 34.6% | viability, T/C (second compound 0.316 µM, first compound 0.0999 µM) 9.45%
26.3 nM: IC50 (second compound 0.0316 µM)

COc1cc(C2c3cc4c(cc3C(OC3OC5COC(C)OC5C(O)C3O)C3COC(=O)C23)OCO4)cc(OC)c1O (stereo unspecified) + Cc1[nH]c2ccc(F)cc2c1-c1nc2c3cccnc3c3ncccc3c2[nH]1
75.3 nM: IC50 (second compound 0.316 µM)
inactive: viability, T/C [1] 87.7% | viability, T/C [2] 49.2% | viability, T/C [3] 26.8% | viability, T/C [4] 9.94% | viability, T/C [7] 89.3% | viability, T/C [8] 52.3% | viability, T/C [9] 25.4% | viability, T/C [10] 12% | viability, T/C [13] 68.3% | viability, T/C [14] 44% | viability, T/C [15] 23.7% | viability, T/C [16] 11.6%
99.2 nM: IC50 (second compound 0.0316 µM)
110 nM: IC50 (second compound 0.1 µM)
active: viability, T/C [5] 10.6% | viability, T/C [6] 5.84% | viability, T/C [11] 9.69% | viability, T/C [12] 6.24% | viability, T/C [17] 7.51% | viability, T/C [18] 4.85% | viability, T/C [19] 4.67% | viability, T/C [20] 4.98% | viability, T/C [21] 4.59% | viability, T/C [22] 5.09% | viability, T/C [23] 4.85% | viability, T/C [24] 3.15% | viability, T/C [25] 4.03% | viability, T/C [26] 5.21% | viability, T/C [27] 3.82% | viability, T/C [28] 5.26% | viability, T/C [29] 4.55% | viability, T/C [30] 3.18% | viability, T/C [31] 4.92% | viability, T/C [32] 4.45% | viability, T/C [33] 4.88% | viability, T/C [34] 4.78% | viability, T/C [35] 4.32% | viability, T/C [36] 4.34%
< 31.6 nM: IC50 (second compound 1 µM) | IC50 (second compound 3.16 µM) | IC50 (second compound 10 µM)

From PubChem BioAssay AID2060486 (Molecular Pharmacology Branch, DTP, NCI, 2025)
